Measurements published in patent US4060608A, “Substituted hydroxymethyl benzodiazepines” (DDSA Pharmaceuticals, priority 1975, dated 1977).
Where a name gives a salt, the structure may show the parent alone.

Legend:
Type in all cases: in vivo
[1] = system: mice; assay: Rotarod test (neuro-muscular coordination), groups of 5 mice, 2 minute test periods for 5 hours after dosage
From the text: (§1) In humans, this retention of coordination would avoid or reduce the disadvantages of loss of concentration and related side effects commonly associated with benzodiazepine drugs. The observation of this effect was made on groups of five mice subjected to a Rotarod test.

[2] = 7-day median lethal dose (LD50) in female mice; details: mouse, in vivo, 7-day
From the text: (§2) The compounds in which R4 is furyl are of particular interest. Their psychotropic action is as disclosed above, but in addition their toxicity tends to be low. […] The higher toxicity at lower temperatures was thought to be caused by […] induced by the compound under test.

[3] = system: female mice; assay: 7-day median lethal dose (LD50) in female mice
From the text: as §2

[4] = diuretic activity at sedating dose; details: dose levels producing sedation (200 mg/Kg)
From the text: At a clinical dose level it can therefore be assumed that there would be no diuretic effect.

[5] = system: mice; assay: observation of sedation/tranquillization and hypnotic state in the mice of the Rotarod test
From the text: as §1
*2/5 mice in hypnotic state - not returned to rotarod.

CN(C)CCCN1c2ccccc2Sc2ccc(Cl)cc21 [Chlorpromazine, reference compound]
Total Number of Falls ([1]; 15 mg./kg., 0 mins. after dosage, 5 mice): 0 | Total Number of Falls ([1]; 15 mg./kg., 15 mins. after dosage, 5 mice): 1 | Total Number of Falls ([1]; 15 mg./kg., 30 mins. after dosage, 5 mice): 0 | Total Number of Falls ([1]; 15 mg./kg., 45 mins. after dosage, 5 mice): 5 | Total Number of Falls ([1]; 15 mg./kg., 60 mins. after dosage, 5 mice): 13 | Total Number of Falls ([1]; 15 mg./kg., 90 mins. after dosage, 5 mice): 17 | Total Number of Falls ([1]; 15 mg./kg., 120 mins. after dosage, 5 mice): 14 | Total Number of Falls ([1]; 15 mg./kg., 180 mins. after dosage, 5 mice): 9 | Total Number of Falls ([1]; 15 mg./kg., 240 mins. after dosage, 5 mice): 13 | Total Number of Falls ([1]; 15 mg./kg., 300 mins. after dosage, 5 mice): 9

CN(C1=Nc2ccc(Cl)cc2C(c2ccccc2)=[N+]([O-])C1)C(O)c1ccco1 (stereo not shown) [SH60, 7-chloro-2-(N-methyl-N-1-hydroxyfurfurylamino)-5-phenyl-3H-1,4-benzodiazepine-4-oxide hydrochloride]
LD50 at 168 h ([2]; at 23° C): 900 mg/kg | LD50 at 168 h ([2]; at 30° C): 1080 mg/kg | toxicity, indicated by the LD50, compared with conventional and commercially used benzodiazepine drugs [3]: significantly lower than that of conventional and commercially used benzodiazepine drugs | diuretic activity [4]: minimal diuretic activity | Total Number of Falls ([1]; 20 mg./kg., 0 mins. after dosage, 5 mice): 2 | Total Number of Falls ([1]; 20 mg./kg., 15 mins. after dosage, 5 mice): 0 | Total Number of Falls ([1]; 20 mg./kg., 30 mins. after dosage, 5 mice): 0 | Total Number of Falls ([1]; 20 mg./kg., 45 mins. after dosage, 5 mice): 0 | Total Number of Falls ([1]; 20 mg./kg., 60 mins. after dosage, 5 mice): 0 | Total Number of Falls ([1]; 20 mg./kg., 90 mins. after dosage, 5 mice): 0 | Total Number of Falls ([1]; 20 mg./kg., 120 mins. after dosage, 5 mice): 0 | Total Number of Falls ([1]; 20 mg./kg., 180 mins. after dosage, 5 mice): 0 | Total Number of Falls ([1]; 20 mg./kg., 240 mins. after dosage, 5 mice): 0 | Total Number of Falls ([1]; 20 mg./kg., 300 mins. after dosage, 5 mice): 0 | Total Number of Falls ([1]; 100 mg./kg., 0 mins. after dosage, 5 mice): 2 | Total Number of Falls ([1]; 100 mg./kg., 15 mins. after dosage, 5 mice): 0 | Total Number of Falls ([1]; 100 mg./kg., 30 mins. after dosage, 5 mice): 0 | Total Number of Falls ([1]; 100 mg./kg., 45 mins. after dosage, 5 mice): 0 | Total Number of Falls ([1]; 100 mg./kg., 60 mins. after dosage, 5 mice): 0 | Total Number of Falls ([1]; 100 mg./kg., 90 mins. after dosage, 5 mice): 0 | Total Number of Falls ([1]; 100 mg./kg., 120 mins. after dosage, 5 mice): 0 | Total Number of Falls ([1]; 100 mg./kg., 180 mins. after dosage, 5 mice): 0 | Total Number of Falls ([1]; 100 mg./kg., 240 mins. after dosage, 5 mice): 0 | Total Number of Falls ([1]; 100 mg./kg., 300 mins. after dosage, 5 mice): 0 | Total Number of Falls ([1]; 200 mg./kg., 0 mins. after dosage, 5 mice): 0 | Total Number of Falls ([1]; 200 mg./kg., 15 mins. after dosage, 5 mice): 0 | Total Number of Falls ([1]; 200 mg./kg., 30 mins. after dosage, 5 mice): 23 | Total Number of Falls ([1]; 200 mg./kg., 45 mins. after dosage, 5 mice): 27 | Total Number of Falls ([1]; 200 mg./kg., 60 mins. after dosage, 5 mice): 36 | Total Number of Falls ([1]; 200 mg./kg., 90 mins. after dosage, 5 mice): 34 | Total Number of Falls ([1]; 200 mg./kg., 120 mins. after dosage, 5 mice): 40 | Total Number of Falls ([1]; 200 mg./kg., 180 mins. after dosage, 2/5 mice in hypnotic state - not returned to rotarod): ≥ 26 | Total Number of Falls ([1]; 200 mg./kg., 240 mins. after dosage, 2/5 mice in hypnotic state - not returned to rotarod): ≥ 37 | Total Number of Falls ([1]; 200 mg./kg., 300 mins. after dosage, 2/5 mice in hypnotic state - not returned to rotarod): ≥ 30 | effect on muscular coordination ([1]; mice, 20 mg/Kg): no apparent effect on muscular coordination | effect on muscular coordination ([1]; mice, 100 mg/Kg): no apparent effect on muscular coordination | difficulty in maintaining balance on the rotating rod ([1]; mice, 200 mg/Kg): all animals showed difficulty in maintaining balance on the rotating rod | neuro-muscular coordination ([1]; mice, dose levels producing tranquilizing and sedative effects): normal neuro-muscular coordination | mice in hypnotic state - not returned to rotarod ([5]; 200 mg./kg., footnote to 180, 240 and 300 mins. after dosage): 2/5 | sedation/tranquillization ([5]; mice, 20 mg/Kg): apparent sedation/tranquillization | sedation/tranquillization ([5]; mice, 100 mg/Kg): apparent sedation/tranquillization | sedation ([5]; mice, 200 mg/Kg, after 30 minutes): marked sedation
